Measured values published in PMC8179138, “Ligand design by targeting a binding site water” (Chemical Science, 2020).
Where two headings read alike, the source gives them in different places.

Tests used:
human A2AAR [1] = molecular target: T1, human A2AAR (Homo sapiens, UniProt P29274); parameters: expressed in transfected cells; conditions: cited from earlier work
human A3AR [2] = molecular target: T2, human A3AR (Homo sapiens, UniProt P0DMS8); parameters: expressed in transfected cells; method as in Rodriguez et al.3; conditions: ref Rodriguez et al.3; cited from earlier work
T2 sequence (P0DMS8 1-318): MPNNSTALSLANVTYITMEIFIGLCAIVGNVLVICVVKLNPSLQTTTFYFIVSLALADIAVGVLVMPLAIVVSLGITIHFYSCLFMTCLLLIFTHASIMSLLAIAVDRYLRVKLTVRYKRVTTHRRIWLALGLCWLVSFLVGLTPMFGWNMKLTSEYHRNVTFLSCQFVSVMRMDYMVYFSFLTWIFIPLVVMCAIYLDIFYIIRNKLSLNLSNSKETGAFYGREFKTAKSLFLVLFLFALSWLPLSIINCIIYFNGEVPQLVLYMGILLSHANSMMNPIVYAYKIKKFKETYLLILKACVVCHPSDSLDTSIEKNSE

[3] = molecular target: T3, hAR subtype A2A in HEK293 cells (Homo sapiens, UniProt P29274); test: Functional cAMP assay, A2AAR; type: cell-based; conditions: for Emax at 10 µM: HEK293, stimulation of cAMP production at 10 μM, n=3, read-out: Maximum efficacy A2A (% activation); for A2AAR agonist activity in words: Gs-mediated cAMP production
T3 construct: expressed in transfected cells

human A2AAR [4] = molecular target: T1, human A2AAR; test: Radioligand binding assay, A2AAR; conditions: for A2AAR activity class (Active/Inactive) in Fig. 2: summary of binding and functional data
Description: (§1) using 8-[4-[[[[(2-aminoethyl)amino]carbonyl]methyl]oxy]phenyl]-1,3-dipropylxanthin e (XAC) at 10 µM for A1 and A2A and 100 µM for A2B and A3. Binding parameters were calculated using Prism 8 software (GraphPAD, San Diego, CA, USA). IC50 values obtained from competition curves were converted to Ki values using the Cheng–Prusoff equation23.
(§2) Data are express ed as mean ± standard error.

human A1AR = molecular target: T4, human A1AR (Homo sapiens, UniProt P30542); test: Radioligand binding assay, A1AR
T4 sequence (P30542 1-326): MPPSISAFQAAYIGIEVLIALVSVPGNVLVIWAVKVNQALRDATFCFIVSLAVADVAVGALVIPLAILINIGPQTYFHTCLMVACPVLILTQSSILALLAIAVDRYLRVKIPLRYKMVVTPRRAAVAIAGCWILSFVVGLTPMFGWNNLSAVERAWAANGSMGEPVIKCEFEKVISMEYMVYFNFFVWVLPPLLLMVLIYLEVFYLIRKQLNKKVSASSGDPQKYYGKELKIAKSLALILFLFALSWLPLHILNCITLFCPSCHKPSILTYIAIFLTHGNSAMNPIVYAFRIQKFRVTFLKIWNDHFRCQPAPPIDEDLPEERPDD
Description: as §1, §2

human A2BAR = molecular target: T5, human A2BAR (Homo sapiens, UniProt P29275); test: Radioligand binding assay, A2BAR; conditions: read-out: % Inhibition at 10µM A2B
T5 sequence (P29275 1-332): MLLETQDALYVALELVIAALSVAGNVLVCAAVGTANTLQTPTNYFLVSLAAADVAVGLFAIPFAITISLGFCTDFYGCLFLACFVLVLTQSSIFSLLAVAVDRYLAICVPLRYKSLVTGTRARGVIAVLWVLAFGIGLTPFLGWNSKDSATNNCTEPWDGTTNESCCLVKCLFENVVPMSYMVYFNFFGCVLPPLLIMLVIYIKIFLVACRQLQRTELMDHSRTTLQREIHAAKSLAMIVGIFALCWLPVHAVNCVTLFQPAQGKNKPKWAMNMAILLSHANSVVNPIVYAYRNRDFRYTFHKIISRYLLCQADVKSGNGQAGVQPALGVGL
Description: as §1, §2

human A3AR [5] = molecular target: T2, human A3AR; test: Radioligand binding assay, A3AR
Description: as §1, §2

[6] = molecular target: T6, hAR subtype A2B in HEK293 cells (Homo sapiens, UniProt P29275); test: Functional cAMP assay, A2BAR; type: cell-based
T6 construct: expressed in transfected cells
T6 sequence (P29275 1-332): T5 sequence (P29275 1-332)

[7] = molecular target: T7, hAR subtype A1 in HEK293 cells (Homo sapiens, UniProt P30542); test: Functional cAMP assay, A1AR; type: cell-based
T7 sequence (P30542 1-326): T4 sequence (P30542 1-326)

[8] = molecular target: T8, hAR subtype A3 in HEK293 cells (Homo sapiens, UniProt P0DMS8); test: Functional cAMP assay, A3AR; type: cell-based
T8 construct: expressed in transfected cells
T8 sequence (P0DMS8 1-318): T2 sequence (P0DMS8 1-318)

adenosine deaminase = test: A2AAR activity in absence and presence of adenosine deaminase; type: in vitro ADME; conditions: concluded qualitatively from A2AAR activity without and with adenosine deaminase
Description: For compounds 3 and 4, both binding and functional assays at the A2AAR were carried out (Fig. 2). Experiments were also performed for the A1, A2B, and A3 subtypes (Fig. S1 and Table S1 ^†).

T3 sequence (P29274 whole entry): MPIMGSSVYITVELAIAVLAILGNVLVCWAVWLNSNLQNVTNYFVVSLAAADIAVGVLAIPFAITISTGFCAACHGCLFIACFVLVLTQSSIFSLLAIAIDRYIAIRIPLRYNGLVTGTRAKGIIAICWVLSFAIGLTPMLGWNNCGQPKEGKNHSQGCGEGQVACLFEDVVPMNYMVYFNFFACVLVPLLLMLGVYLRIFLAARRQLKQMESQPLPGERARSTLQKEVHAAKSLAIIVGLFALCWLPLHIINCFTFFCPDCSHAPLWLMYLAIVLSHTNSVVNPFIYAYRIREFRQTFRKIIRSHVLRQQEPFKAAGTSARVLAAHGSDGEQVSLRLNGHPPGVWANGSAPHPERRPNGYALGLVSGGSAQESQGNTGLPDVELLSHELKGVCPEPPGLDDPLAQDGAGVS
T1 sequence (P29274 whole entry): as above

In the case of Nc1nccc2c1ncn2[C@@H]1O[C@H](CO)[C@@H](O)[C@H]1O [Compound 2, 3-deazaadenosine], the “% Inhibition at 10µM A2A” value (human A2AAR [1]; 10 µM, ref Rodriguez et al.3) is listed as 24 ± 8%, the “A2AAR activity class (Active/Inactive) in Fig. 2” value (human A2AAR [1]; summary of binding and functional data) is listed as “Inactive” and the Ki (human A2AAR [1]; very low affinity) is listed as 39000 nM. For the same compound, the “% Inhibition at 10µM A3” value (human A3AR [2]) was 53 ± 11% and the Emax at 10 µM [3] was 20 ± 4%.

In the case of Cc1cnc(N)c2ncn(C3OC(CO)C(O)C3O)c12 (stereo not drawn) [Compound 3], the “% Inhibition at 10µM A2A” value (human A2AAR [4]; 10 µM, radioligand binding, n=3) is reported as “did not show significant displacement”, the inhibition at 10 µM (human A2AAR [4]; read-out: % Inhibition at 10µM A2A) is reported as 13 ± 1% and the “A2AAR activity class (Active/Inactive) in Fig. 2” value (human A2AAR [4]) is reported as “Inactive”. The inhibition at 10 µM (human A1AR; read-out: % Inhibition at 10µM A1) was 48 ± 17%, the inhibition at 10 µM (human A2BAR) was 1 ± 1% and the inhibition at 10 µM (human A3AR [5]; read-out: % Inhibition at 10µM A3) was 50 ± 2%. The “A2AAR agonist activity in words” value [3] was “inactive” and the Emax at 10 µM [3] was 9 ± 1%.

With Nc1ncc(CO)c2c1ncn2C1OC(CO)C(O)C1O (stereo not drawn) [Compound 4] the “activation of A2BAR in words” value [6] was “not”, the Emax ([6]; cAMP, HEK293, n=3, read-out: Maximum efficacy A2B) was < 15% and the Ki (human A2AAR [4]) was 103 nM. For the same compound, the “A2AAR activity class (Active/Inactive) in Fig. 2” value (human A2AAR [4]) was “Active”, the “activation of A1 subtype in words” value [7] was “activated” and the EC50 ([7]; cAMP, HEK293, n=3) was 180 ± 38 nM. For the same compound, the Emax ([7]; cAMP, HEK293, n=3, read-out: Maximum efficacy A1) was 101 ± 3%, the “activation of A3 subtype in words” value [8] was “activated” and the EC50 ([8]; cAMP, HEK293, n=3) was 318 ± 66 nM. For the same compound, the Emax ([8]; cAMP, HEK293, n=3, read-out: Maximum efficacy A3) was 97 ± 4%, the “resistance to degradation by adenosine deaminase” value (adenosine deaminase) was “resistance” and the Ki (human A1AR) was 31 ± 4 nM. For the same compound, the inhibition at 10 µM (human A2BAR) was 29 ± 7%, the Ki (human A3AR [5]) was 280 ± 27 nM and the “A2AAR agonist activity in words” value [3] was “full agonist”. It also gave an Emax at 10 µM [3] of 99 ± 3% and an EC50 ([3]; cAMP production, HEK293, n=3) of 732 nM.
